Test results reported in US10435388B2, “Selective inhibitors of clinically important mutants of the EGFR tyrosine kinase” (CS PHARMATECH LIMITED, priority 2016, dated 2019).
Structures can show the parent of a compound that is named as a salt.

Experiments:
[1] = test system: p-EGFR in H1975 cells (L858R/T790M double mutant EGFR); conditions: Homo sapiens, NCI-H1975, 2 h, read-out: H1975 IC50 (nM), cellular EGFR autophosphorylation, 2 h treatment, ELISA
Experimental: H1975 cells were cryopreserved in liquid nitrogen. […] Remove the vial from liquid nitrogen and thaw rapidly by placing at 37° C. in a water bath with gentle agitation for 1-2 minutes and then decontaminated by wiping with 70% ethanol before opening in a Class II biological safety cabinet. Transfer the vial contents drop-wise into 10 mL of cell culture medium in a sterile 15 mL conical tube. Then centrifuged the tube at 200× g for 5 minutes and aspirate the supernatant. Re-suspend the cell pellet with 1 mL of fresh cell culture medium and transfer it in to the T75 flask containing cell culture medium.
To passage H1975 cells, firstly, the adherent cells were rinsed with Trypsin/EDTA. Then add Trypsin/EDTA (3 mL for a T75 flask) into the flask and swirl to ensure the cells coated with trypsin evenly. Then incubate the flasks at 37° C. until the cells detach. Add equal volume of cell culture medium to stop the reaction. Collect the detached cells and centrifuged at 200× g for 5 minutes followed by re-suspended in fresh culture medium. Then, the cells were transferred into a new T75 flask containing cell culture medium. Cells were sub-cultured three times per week at a ratio of 1:4 in culture medium.
Harvest cells from flask into cell culture medium and the cell numbers counted using Automated Cell Counter (Thermo Fisher Scientific, Countess™). Dilute the cells into 250,000 cells/mL with culture medium and add 40 μL of cell suspension into each well of 384-well cell culture plate as designated. The final concentration was 10,000 cells/well. The plates were covered with lid and placed in 37° C. 5% CO2 incubator overnight for cell attachment.
On the second day, test compounds were dissolved in DMSO at 10 mM. […] The same volume of DMSO was adopted as high control.
Place the plate back to 37° C. 5% CO2 incubator for 2 hours. Replace the medium of each well with ice-cold HBSS. Then remove the HBSS, add 30 μL cell lysis buffer into each well and shake the plates for 30 mins on a plate shaker. Centrifuge for 5 min at 1,000 rpm to remove bubbles and transfer 25 uL of the lysate supernatant for p-EGFR assay by using a commercial ELISA kit (R&D, DYC1095B-5).
For estimation of IC50, the absorption readout are transformed to % relative activity by applying the following equation
[formula] The IC50 was then calculated by fitting in XLFit (IDBS, Guildford, Surrey) to a four parameters logistic curve.

[2] = Mouse in vivo PK study; conditions: male CDI mice; for F: PO 10 mg/kg vs IV 1 mg/kg; for clearance / half-life / AUC / Cmax: mouse, plasma; for clearance / half-life: IV 1 mg/kg; for half-life: read-out: T1/2 (IV) (converted); for AUC / Cmax: PO 10 mg/kg
Experimental: To determine the drug concentration in plasma of NJB-342, NJB-348 and NJB-463 following intravenous and oral administration in male CDI Mice, to get the pharmacokinetic profile and PK parameters
Test animals: healthy male CDI mice (body weight 20-30 g, 18 mice, free access to food and water), provided by Sibeifu laboratory.
Dose Level and dose route: dosed the animals via intravenous injection from tail vein for IV group (1 mg/kg, 5 mL/kg, 10% DMSO/40% PEG400/50% water), dosed the animals via oral gavage for PO group (10 mg/kg, 10 mL/kg, (10% DMSO/40% PEG400/50% water), respectively.
Samples collection: the healthy animals were used, weighed the bodyweight and marked at tail and cage card prior to dosing. Blood samples (0.03 mL per time point) were collected from dorsal metatarsal vein at 0.083, 0.25, 0.5, 1, 2, 4, 8, 24 h post dose for IV group and at 0.25, 0.5, 1, 2, 4, 8, 24 h post dose for PO group, the terminal time point was collected from heart (˜0.3 mL). The blood samples were put into the tube with heparin-Na coated and then put on the cold box, centrifuged at 4° C. 4000 g, 5 minutes immediately after collecting all samples per time point to get plasma. The plasma samples were stored in a freezer at −75±15° C. prior to analysis.

[3] = test system: p-EGFR in A431 cells (wild type EGFR, EGF stimulated); experiment: Wild type EGFR A431 autophosphorylation inhibition assay (ELISA); format: cell-based, human; conditions: Homo sapiens, A-431, cellular EGFR autophosphorylation, 2 h treatment, EGF stimulation 10 min
Experimental: Cellular EGFR Autophosphorylation Assays.
Wild Type EGFR A431 Autophosphorylation Inhibition Assay (ELISA).
After 2 hour treatment with test compounds, add 4.5 μL of EGF (1 μg/mL) into each well and stimulate for 10 min. The rest of the procedure was processed in the same manner as described above for H1975 cells.

[4] = test system: H1975 cells (DM); experiment: H1975 inhibition assay (cell proliferation), Method B; format: cell-based; conditions: cellular proliferation, several runs
[5] = test system: PC9 cells (SM); experiment: PC-9 growth inhibition assay (cell proliferation), Method B; format: cell-based, human; conditions: cellular proliferation, several runs
[6] = test system: A431 cells (WT); experiment: A431 inhibition assay (cell proliferation), Method B; format: cell-based, human; conditions: cellular proliferation, several runs
Experimental: Cell Proliferation Assays—Method B
A431 Inhibition Assay, (Cell Proliferation).
The rest procedure was conducted in the same manner as described above for H1975 cells.

[7] = test system: p-EGFR in PC9 cells (Exon 19 deletion EGFR); experiment: Exon19 deletion EGFR (activating single mutant) PC-9 cellular autophosphorylation assay; format: cell-based, human; conditions: Homo sapiens, PC-9, 2 h, 2 h treatment, ELISA
[8] = molecular target: T1, IGF-1R (Homo sapiens, UniProt P08069); experiment: IGF-1R inhibition assay (Caliper EZ Reader); format: biochemical; conditions: enzyme assay
T1 construct: purchased CARNA BIOSCIENCE 08-141
T1 sequence (P08069 959-1367 limits assumed): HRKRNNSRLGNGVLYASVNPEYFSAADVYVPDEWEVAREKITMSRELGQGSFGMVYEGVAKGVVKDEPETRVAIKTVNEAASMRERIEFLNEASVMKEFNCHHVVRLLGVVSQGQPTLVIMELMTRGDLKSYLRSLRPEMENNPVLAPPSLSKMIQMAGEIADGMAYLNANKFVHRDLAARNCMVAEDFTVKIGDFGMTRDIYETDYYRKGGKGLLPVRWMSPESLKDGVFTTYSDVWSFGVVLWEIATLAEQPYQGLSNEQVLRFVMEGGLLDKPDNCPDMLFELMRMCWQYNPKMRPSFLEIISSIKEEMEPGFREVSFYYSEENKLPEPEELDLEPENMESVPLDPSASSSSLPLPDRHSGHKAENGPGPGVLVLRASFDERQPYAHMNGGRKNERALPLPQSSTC
Method in brief: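 IGF-1R protein and peptide substrate were preincubated 30 min at RT with compound. Phosphorylated and non-phosphorylated fluorescent peptides were separated by mobility shift, and the read-out is the conversion ratio.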

[9] = molecular target: T2, INSR (Homo sapiens, UniProt P06213); experiment: INSR inhibition assay (Caliper EZ Reader); format: biochemical; conditions: enzyme assay
T2 construct: purchased CARNA BIOSCIENCE 08-142
T2 sequence (P06213 989-1382 limits assumed): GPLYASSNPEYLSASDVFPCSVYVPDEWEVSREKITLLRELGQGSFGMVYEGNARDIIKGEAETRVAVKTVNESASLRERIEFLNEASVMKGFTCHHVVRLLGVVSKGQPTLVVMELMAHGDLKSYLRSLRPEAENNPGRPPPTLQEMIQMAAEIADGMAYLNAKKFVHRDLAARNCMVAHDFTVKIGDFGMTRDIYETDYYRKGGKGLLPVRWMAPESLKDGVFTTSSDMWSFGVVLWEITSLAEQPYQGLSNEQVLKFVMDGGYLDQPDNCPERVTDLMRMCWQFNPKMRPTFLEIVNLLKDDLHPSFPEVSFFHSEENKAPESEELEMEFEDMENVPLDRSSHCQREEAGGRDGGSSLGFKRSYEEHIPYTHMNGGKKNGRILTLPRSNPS

Compound | IC50 [1] | F [2] | clearance [2] | half-life [2] | AUC [2] | Cmax [2] | IC50 [3] | IC50 ([4]; Homo sapiens, NCI-H1975, 72 h) | IC50 ([4]; 72 h, hydrochloride) | IC50 ([5]; Homo sapiens, PC-9, 72 h) | IC50 ([5]; 72 h, hydrochloride) | IC50 ([6]; Homo sapiens, A-431, 72 h) | IC50 ([6]; 72 h, hydrochloride) | IC50 [7] | IC50 [8] | IC50 [9]
C=CC(=O)Nc1cc(Nc2nccc(-c3cc(C(N)=O)cc4c3ccn4C)n2)c(OC)cc1N(C)CCN(C)C [Example 34, 4-(2-((5-Acrylamido-4-((2-(dimethylamino)ethyl)(methyl)amino)-2-methoxyphenyl)amino)pyrimidin-4-yl)-1N-methyl-1H-indole-6-carboxamide hydrochloride] | 2.19 nM | 10.3% | 110 mL/min/kg | 66.6 min | 165 ng·h/mL | 58 ng/mL | 400 nM | 4.62 nM | 3.23 nM | 7.23 nM | 10.9 nM | 1770 nM | 928 nM | 7.14 nM | 470 nM | 514 nM
C=CC(=O)Nc1cc(Nc2nccc(-n3nc(N(C)C)c4ccccc43)n2)c(OC)cc1N(C)CCN(C)C [Example 42, N-(5-((4-(3-(Dimethylamino)-1H-indazol-1-yl)pyrimidin-2-yl)amino)-2-((2-(dimethylamino)ethyl)(methyl)amino)-4-methoxyphenyl) acrylamide] | 4.19 nM | 42.1% | 97 mL/min/kg | 79.2 min | 677 ng·h/mL | 176 ng/mL | 66.3 nM | 2.37 nM | – | 2.29 nM | – | 396 nM | – | 3.69 nM | 337 nM | 366 nM
